Test results from ChEMBL document CHEMBL5137130, “Highly N-Methylated Peptides from the Antarctic Sponge Inflatella coelosphaeroides Are Active against Plasmodium falciparum” (J Nat Prod, 2022).
Where a SMILES comes first, the peptide text is derived from it. [ ]: non-standard residue; d: D form. The star is where a group is joined. Phe(Nα-CONH2) = NC(=O)N[C@@H](Cc1ccccc1)C(=O)*; NMeI = CC[C@H](C)[C@H](NC)C(=O)O; X1 = CN(/C=C\c1c[nH]c2ccccc12)*; NMeL = CN[C@@H](CC(C)C)C(=O)O; NMeV = CN[C@H](C(=O)O)C(C)C; NMeA = CN[C@@H](C)C(=O)O; For = O=C*

Columns and labels:
[1] = tested on: Plasmodium falciparum; test: Antimalarial activity against blood stage chloroquine-sensitive Plasmodium falciparum 3D7 assessed as reduction in parasite growth incubated for 72 hrs by SYBR Green dye based fluorescence assay; type: functional, organism-based; conditions: 3D7, 72 h
[2] = Cytotoxicity against mouse J774 cells assessed as reduction in cell viability incubated for 68 hrs by CellTiter96 Aqueous One Solution Cell Proliferation Assay; type: toxicity, cell-based
[3] = tested on: Plasmodium falciparum; test: Antimalarial activity against blood stage chloroquine-resistant Plasmodium falciparum Dd2 assessed as reduction in parasite growth incubated for 72 hrs by SYBR Green dye based fluorescence assay; type: functional, organism-based; conditions: Dd2, 72 h
[4] = tested on: Plasmodium falciparum; test: Antimalarial activity against blood stage chloroquine-sensitive Plasmodium falciparum NF54 assessed as reduction in parasite growth incubated for 72 hrs by SYBR Green dye based fluorescence assay; type: functional, organism-based; conditions: NF54, 72 h

## CC[C@H](C)[C@@H](C(N)=O)N(C)C(=O)[C@H](C(C)C)N(C)C(=O)[C@H](CC(C)C)N(C)C(=O)[C@H](Cc1ccccc1)N(C)C(=O)[C@H](Cc1ccccc1)NC=O
[1]
  IC50: 2.1 µM
[2]
  IC50 at 68 h: > 20 µM
[3]
  IC50: 1.72 µM
[4]
  IC50: 2.61 µM

## CC[C@H](C)[C@@H](C(=O)NC)N(C)C(=O)[C@H](C)N(C)C(=O)[C@H](C(C)C)N(C)C(=O)[C@H](C(C)C)N(C)C(=O)[C@H](C)N(C)C(=O)[C@H](C(C)C)N(C)C(=O)[C@H](C(C)C)N(C)C(=O)[C@H](C)N(C)C(=O)[C@H](C)NC(C)=O (Ac-A[NMeA][NMeV][NMeV][NMeA][NMeV][NMeV][NMeA][NMeI]-NHMe)
[1]
  IC50: > 10 µM
[2]
  IC50 at 68 h: > 20 µM
[3]
  IC50: > 10 µM
[4]
  IC50: > 10 µM

## CC[C@H](C)[C@@H](C(=O)N(C)/C=C\c1c[nH]c2ccccc12)N(C)C(=O)[C@H](C(C)C)N(C)C(=O)[C@H](C(C)C)N(C)C(=O)[C@H](CC(C)C)N(C)C(=O)[C@@H]1CCCN1C(=O)[C@H](Cc1ccccc1)NC(=O)[C@H](Cc1ccccc1)NC(C)=O (Ac-FFP[NMeL][NMeV][NMeV][NMeI]-X1)
[1]
  IC50: 8.65 µM
[2]
  IC50 at 68 h: > 20 µM
[3]
  IC50: 3.3 µM
[4]
  IC50: 3.93 µM

## CC[C@H](C)[C@@H](C(=O)N(C)[C@@H](C)C(=O)N(C)[C@H](C(N)=O)C(C)C)N(C)C(=O)[C@H]([C@@H](C)CC)N(C)C(=O)[C@H](C)N(C)C(=O)[C@H](C(C)C)N(C)C(=O)[C@H](C)N(C)C(=O)[C@@H](NC(C)=O)C(C)C (Ac-V[NMeA][NMeV][NMeA][NMeI][NMeI][NMeA][NMeV]-NH2)
[1]
  IC50: > 10 µM
[2]
  IC50 at 68 h: > 20 µM
[3]
  IC50: > 10 µM
[4]
  IC50: > 10 µM

## CNC(=O)[C@H](C(C)C)N(C)C(=O)[C@H](C(C)C)N(C)C(=O)[C@H](C(C)C)N(C)C(=O)[C@H](C)N(C)C(=O)[C@H](C)N(C)C(=O)[C@H](CC(C)C)N(C)C(=O)[C@H](C(C)C)N(C)C(=O)[C@H](Cc1ccccc1)NC=O (For-F[NMeV][NMeL][NMeA][NMeA][NMeV][NMeV][NMeV]-NHMe)
[1]
  IC50: 2.52 µM
[2]
  IC50 at 68 h: > 20 µM
[3]
  IC50: 1.07 µM
[4]
  IC50: 3.73 µM

## CC[C@H](C)[C@@H](C(=O)N(C)[C@H](C(=O)NC)[C@@H](C)CC)N(C)C(=O)[C@H](C(C)C)N(C)C(=O)[C@H](C)N(C)C(=O)[C@H](C(C)C)N(C)C(=O)[C@H](C(C)C)N(C)C(=O)[C@@H](NC=O)C(C)C (For-V[NMeV][NMeV][NMeA][NMeV][NMeI][NMeI]-NHMe)
[1]
  IC50: > 10 µM
[2]
  IC50 at 68 h: > 20 µM
[3]
  IC50: 4.37 µM
[4]
  IC50: > 10 µM

## CNC(=O)[C@H](C(C)C)N(C)C(=O)[C@H](C(C)C)N(C)C(=O)[C@H](C(C)C)N(C)C(=O)[C@H](C)N(C)C(=O)[C@H](C)N(C)C(=O)[C@H](CC(C)C)N(C)C(=O)[C@H](C(C)C)N(C)C(=O)[C@H](Cc1ccccc1)NC(N)=O ({Phe(Nα-CONH2)}-[NMeV][NMeL][NMeA][NMeA][NMeV][NMeV][NMeV]-NHMe)
[1]
  IC50: > 10 µM
[2]
  IC50 at 68 h: > 20 µM
[3]
  IC50: 2.02 µM
[4]
  IC50: 3.05 µM
